Experimental data as given in ChEMBL document CHEMBL5385872, “Design and syntheses of a bimolecular STING agonist based on the covalent STING antagonist” (Eur J Med Chem, 2023).
pEC50, pIC50: −log10 of the molar value. Activity calls are given as the source filed them. The calls are words filed in the database; no cut-off is given here.

Legend:
HT-1080 [1] = assay: Induction of TBK1 phosphorylation in human HT1080 cells at 20 uM measured after 5 hrs by Western blot analysis; type: functional, cell-based
HT-1080 [2] = assay: Induction of TBK1 phosphorylation in STING - knockout human HT1080 cells at 20 uM measured after 5 hrs by Western blot analysis; type: functional, cell-based
[3] = molecular target: Stimulator of interferon genes protein (Homo sapiens) (UniProt Q86WV6); assay: Induction of STING-dependent gene expression in human HT-1080 cells assessed as increase in […] induced IFNbeta mRNA expression at 20 uM incubated for 8 hrs by qRT-PCR analysis; type: cell-based; conditions: filed as agonist
Stimulator of interferon genes protein (Homo sapiens), sequence (Q86WV6 whole entry): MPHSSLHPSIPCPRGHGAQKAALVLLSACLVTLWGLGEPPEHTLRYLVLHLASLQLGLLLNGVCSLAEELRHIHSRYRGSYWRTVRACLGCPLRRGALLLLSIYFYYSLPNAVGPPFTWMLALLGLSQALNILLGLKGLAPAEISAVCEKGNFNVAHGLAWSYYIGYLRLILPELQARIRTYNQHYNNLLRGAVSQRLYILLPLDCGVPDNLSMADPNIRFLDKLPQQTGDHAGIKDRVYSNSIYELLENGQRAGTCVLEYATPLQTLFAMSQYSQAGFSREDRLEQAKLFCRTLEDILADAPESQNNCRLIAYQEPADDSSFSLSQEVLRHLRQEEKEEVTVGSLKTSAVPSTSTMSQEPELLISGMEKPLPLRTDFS

[4] = molecular target: Stimulator of interferon genes protein (Homo sapiens) (UniProt Q86WV6); assay: Agonist activity at STING in human HT-1080 cells assessed as increase in diABZI-induced TBK1 phosphorylation at 2.5 to 20 uM measured after 5 hrs by Western blot analysis; type: cell-based; conditions: filed as agonist, dose 2.5-20 µM
[5] = test system: Stimulator of interferon genes protein (Homo sapiens), Q86WV6 [C148A]; assay: Induction of STING C148A mutant (unknown origin) mediated TBK1 phosphorylation in human HeLa cells transfected with STING C148A mutant at 10 uM measured after 5 hr by Western blot analysis; type: cell-based; conditions: filed as agonist
Stimulator of interferon genes protein (Homo sapiens), Q86WV6 [C148A], sequence (Q86WV6 whole entry C148A): as the sequence (Q86WV6 whole entry) above, with C148A counted along it

HT-1080 [6] = assay: Effect on TBK1 phosphorylation in STING - knockout human HT1080 cells at 20 uM measured after 5 hrs by Western blot analysis; type: functional, cell-based
[7] = molecular target: Stimulator of interferon genes protein (Homo sapiens) (UniProt Q86WV6); assay: Induction of STING-dependent gene expression in human HT-1080 cells assessed as TNFalpha mRNA expression at 20 uM incubated for 8 hrs by qRT-PCR analysis; type: cell-based; conditions: filed as agonist
SARS-CoV-2 = assay: Antiviral activity against SARS-CoV-2 assessed as inhibition of replication by qRT-PCR analysis; type: functional, organism-based; conditions: Severe acute respiratory syndrome coronavirus 2
[8] = molecular target: T1, Stimulator of interferon genes protein (Mus musculus) (UniProt Q3TBT3); assay: Induction of STING dimerization in mouse BMDM cells at 2.5 to 20 uM measured after 5 hrs by Western blot analysis; type: cell-based; conditions: filed as agonist, dose 2.5-20 µM
T1 sequence (whole entry): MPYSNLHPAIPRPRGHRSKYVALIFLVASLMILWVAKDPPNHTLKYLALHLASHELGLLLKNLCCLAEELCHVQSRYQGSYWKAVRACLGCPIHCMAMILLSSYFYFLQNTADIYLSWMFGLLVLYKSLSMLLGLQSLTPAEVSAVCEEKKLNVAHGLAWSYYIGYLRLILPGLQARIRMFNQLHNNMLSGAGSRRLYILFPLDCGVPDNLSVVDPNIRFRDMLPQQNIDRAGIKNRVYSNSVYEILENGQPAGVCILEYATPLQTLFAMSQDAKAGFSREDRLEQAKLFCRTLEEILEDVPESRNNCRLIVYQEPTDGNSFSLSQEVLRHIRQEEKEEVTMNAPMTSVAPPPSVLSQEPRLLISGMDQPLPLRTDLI

[9] = molecular target: Stimulator of interferon genes protein (Homo sapiens) (UniProt Q86WV6); assay: Induction of STING dimerization in human HT-1080 cells at 2.5 to 20 uM measured after 5 hrs by Western blot analysis; type: cell-based; conditions: filed as agonist, dose 2.5-20 µM
[10] = test system: Stimulator of interferon genes protein (Homo sapiens), Q86WV6 [C91S]; assay: Induction of oligomerization of STING C91S (unknown origin) mutant in human HeLa cells transfected with wild type STING assessed as intracellular puncta formation at 10 uM measured after 1 hr by DAPI staining based immunofluorescence microscopy; type: cell-based; conditions: filed as agonist
Stimulator of interferon genes protein (Homo sapiens), Q86WV6 [C91S], sequence (Q86WV6 whole entry C91S): as the sequence (Q86WV6 whole entry) above, with C91S counted along it

[11] = molecular target: Stimulator of interferon genes protein (Homo sapiens) (UniProt Q86WV6); assay: Induction of STING-dependent gene expression in human HT-1080 cells assessed as increase in diABZI induced IFNbeta mRNA expression at 20 uM incubated for 8 hrs by qRT-PCR analysis; type: cell-based; conditions: filed as agonist
[12] = molecular target: Stimulator of interferon genes protein (Homo sapiens) (UniProt Q86WV6); assay: Agonist activity at STING in human HT-1080 cells assessed as increase in TBK1 phosphorylation at 2.5 to 20 uM measured after 5 hrs by Western blot analysis; type: cell-based; conditions: filed as agonist, dose 2.5-20 µM
[13] = molecular target: Stimulator of interferon genes protein (Homo sapiens) (UniProt Q86WV6); assay: Induction of STING-dependent gene expression in human HT-1080 cells assessed as IFNbeta mRNA expression at 20 uM incubated for 8 hrs by qRT-PCR analysis; type: cell-based; conditions: filed as agonist
[14] = molecular target: Stimulator of interferon genes protein (Homo sapiens) (UniProt Q86WV6); assay: Induction of STING-dependent gene expression in human THP1 cells assessed as IFNbeta mRNA expression at 2.5 to 20 uM incubated for 8 hrs by qRT-PCR analysis; type: cell-based; conditions: THP-1, filed as agonist, dose 2.5-20 µM
RAW264.7 [15] = assay: Cytotoxicity against mouse RAW264.7 cells assessed as cell viability measured after 72 hrs by MTT assay; type: functional, cell-based; conditions: RAW264.7, 72 h
[16] = Antiviral activity against rhesus rotavirus assessed as inhibition of replication by qRT-PCR analysis; type: functional, Simian rotavirus A strain RRV
[17] = molecular target: T1, Stimulator of interferon genes protein (Mus musculus); assay: Agonist activity at STING in mouse BMDM cells assessed as increase in TBK1 phosphorylation at 2.5 to 20 uM measured after 5 hrs by Western blot analysis; type: cell-based; conditions: filed as agonist, dose 2.5-20 µM
[18] = molecular target: Stimulator of interferon genes protein (Homo sapiens) (UniProt Q86WV6); assay: Induction of wild type STING mediated TBK1 phosphorylation in human HeLa cells transfected with wild type STING at 10 uM measured after 5 hr by Western blot analysis; type: cell-based; conditions: filed as agonist
Vero = assay: Cytotoxicity against interferon production defective African green monkey Vero cells assessed as cell viability measured after 72 hrs by MTT assay; type: functional, cell-based; conditions: Chlorocebus sabaeus
BMDM = assay: Effect on STING level in mouse BMDM cells at 2.5 to 20 uM incubated for 8 hrs by Western blot analysis; type: functional, cell-based; conditions: dose 2.5-20 µM
[19] = molecular target: Stimulator of interferon genes protein (Homo sapiens) (UniProt Q86WV6); assay: Induction of STING dimerization in human THP1 cells at 2.5 to 20 uM measured after 5 hrs by Western blot analysis; type: cell-based; conditions: THP-1, filed as agonist, dose 2.5-20 µM
[20] = test system: Herpes simplex virus unknown type; assay: Antiviral activity against HSV infected in human HT-1080 cells assessed as reduction viral protein ICP0 expression at 2.5 to 20 uM pretreated for 1 hr followed by infection measured after 18 hrs by Western blot analysis; type: functional, cell-based; conditions: dose 2.5-20 µM, time 19.0 hrs
[21] = molecular target: Stimulator of interferon genes protein (Homo sapiens) (UniProt Q86WV6); assay: Agonist activity at STING in human HT-1080 cells assessed as increase in ADU-S100-induced TBK1 phosphorylation at 2.5 to 20 uM measured after 5 hrs by Western blot analysis; type: cell-based; conditions: filed as agonist, dose 2.5-20 µM
Mus musculus [22] = assay: Induction of immune-activation effect in wild type female BALB/c mouse assessed as increase in serum IFNbeta level at 15 to 30 mg/kg, ip measured after 24 to 48 hrs by ELISA relative to control; type: functional, organism-based; conditions: dose 15-30 mg/kg, time 24-48 hrs
HT-1080 [23] = assay: Synergistic increase in HSV infection-induced TBK1 phosphorylation in human HT-1080 cells by Western blot analysis; type: functional, cell-based
[24] = Antiviral activity against HSV infected in human HT-1080 cells assessed as reduction viral RNA expression pretreated for 1 hr followed by infection measured after 18 hrs by qRT-PCR analysis; type: functional, cell-based; conditions: Herpes simplex virus unknown type
[25] = molecular target: Stimulator of interferon genes protein (Homo sapiens) (UniProt Q86WV6); assay: Agonist activity at STING in human THP1 cells assessed as increase in TBK1 phosphorylation at 2.5 to 20 uM measured after 5 hrs by Western blot analysis; type: cell-based; conditions: THP-1, filed as agonist, dose 2.5-20 µM
[26] = molecular target: Stimulator of interferon genes protein (Homo sapiens) (UniProt Q86WV6); assay: Induction of STING-dependent gene expression in human THP1 cells assessed as TNFalpha mRNA expression at 2.5 to 20 uM incubated for 8 hrs by qRT-PCR analysis; type: cell-based; conditions: THP-1, filed as agonist, dose 2.5-20 µM
THP-1 = assay: Effect on STING level in human THP1 cells at 2.5 to 20 uM incubated for 8 hrs by Western blot analysis; type: functional, cell-based; conditions: dose 2.5-20 µM
RAW264.7 [27] = assay: Synergistic increase in […]-induced TBK1 phosphorylation in mouse RAW264.7 cells by Western blot analysis; type: functional, cell-based
[28] = molecular target: Stimulator of interferon genes protein (Homo sapiens) (UniProt Q86WV6); assay: Induction of oligomerization of STING in human HeLa cells transfected with wild type STING (unknown origin) assessed as intracellular puncta formation at 10 uM measured after 1 hr by DAPI staining based immunofluorescence microscopy; type: cell-based; conditions: filed as agonist
Mus musculus [29] = assay: Induction of immune-activation effect in wild type female BALB/c mouse assessed as increase in serum TNFalpha level at 15 to 30 mg/kg, ip measured after 24 to 48 hrs by ELISA relative to control; type: functional, organism-based; conditions: dose 15-30 mg/kg, time 24-48 hrs
[30] = test system: Stimulator of interferon genes protein (Homo sapiens), Q86WV6 [C88S,C91S]; assay: Induction of oligomerization of STING C88S/C91S (unknown origin) double mutant in human HeLa cells transfected with wild type STING assessed as intracellular puncta formation at 10 uM measured after 1 hr by DAPI staining based immunofluorescence microscopy; type: cell-based; conditions: filed as agonist
Stimulator of interferon genes protein (Homo sapiens), Q86WV6 [C88S,C91S], sequence (Q86WV6 whole entry C88S/C91S): as the sequence (Q86WV6 whole entry) above, with C88S, C91S counted along it

[31] = molecular target: Stimulator of interferon genes protein (Homo sapiens) (UniProt Q86WV6); assay: Induction of wild type STING dimerization in human HeLa cells transfected with wild type STING at 10 uM measured after 5 hr by Western blot analysis; type: cell-based; conditions: filed as agonist
RAW264.7 [32] = assay: Synergistic increase in HSV infection-induced TBK1 phosphorylation in mouse RAW264.7 cells by Western blot analysis; type: functional, cell-based
[33] = molecular target: T1, Stimulator of interferon genes protein (Mus musculus); assay: Induction of STING dimerization in mouse embryonic fibroblast cells at 2.5 to 20 uM measured after 5 hrs by Western blot analysis; type: cell-based; conditions: MEF, filed as agonist, dose 2.5-20 µM
[34] = molecular target: T1, Stimulator of interferon genes protein (Mus musculus); assay: Agonist activity at STING in mouse embryonic fibroblast cells assessed as increase in TBK1 phosphorylation at 2.5 to 20 uM measured after 5 hrs by Western blot analysis; type: cell-based; conditions: MEF, filed as agonist, dose 2.5-20 µM
HT-1080 [35] = assay: Synergistic increase in […]-induced TBK1 phosphorylation in human HT-1080 cells by Western blot analysis; type: functional, cell-based
HEK-293T = assay: Cytotoxicity against STING-deficient human 293T cells assessed as cell viability measured after 72 hrs by MTT assay; type: functional, cell-based
HT-1080 [36] = assay: Cytotoxicity against human HT-1080 cells assessed as cell viability measured after 72 hrs by MTT assay; type: functional, cell-based; conditions: HT-1080, 72 h
[37] = molecular target: Stimulator of interferon genes protein (Homo sapiens) (UniProt Q86WV6); assay: Induction of STING-dependent gene expression in human HT-1080 cells assessed as increase in ADU-S100 induced IFNbeta mRNA expression at 20 uM incubated for 8 hrs by qRT-PCR analysis; type: cell-based; conditions: filed as agonist
[38] = molecular target: Stimulator of interferon genes protein (Homo sapiens) (UniProt Q86WV6); assay: Agonist activity at STING in human HT-1080 cells assessed as increase in TBK1 phosphorylation at 20 uM measured after 5 hrs by Western blot analysis; type: cell-based; conditions: filed as agonist
[39] = test system: Stimulator of interferon genes protein (Homo sapiens), Q86WV6 [V113Q,G114Q,P115Q]; assay: Induction of STING V113Q/G114Q/P115Q mutant (unknown origin) mediated TBK1 phosphorylation in human HeLa cells transfected with STING C148A mutant at 10 uM measured after 5 hr by Western blot analysis; type: cell-based; conditions: filed as agonist
Stimulator of interferon genes protein (Homo sapiens), Q86WV6 [V113Q,G114Q,P115Q], sequence (Q86WV6 whole entry V113Q/G114Q/P115Q): as the sequence (Q86WV6 whole entry) above, with V113Q, G114Q, P115Q counted along it

## O=C(NCCNCCNC(=O)c1ccc([N+](=O)[O-])s1)c1ccc([N+](=O)[O-])s1
HT-1080 [1]
  Activity: Active
HT-1080 [2]
  Activity: Active

## O=C(NCCCCCNC(=O)c1ccc([N+](=O)[O-])o1)c1ccc([N+](=O)[O-])o1
[3]
  Activity: Active
[4]
  Activity: Active
[5]
  Activity: Active
HT-1080 [6]
  Activity: inactive
[7]
  Activity: Active
SARS-CoV-2
  pEC50: 4.97
[8]
  Activity: Active
[9]
  Activity: Active
[10]
  Activity: Active
[11]
  Activity: Active
[12]
  Activity: Active
[13]
  Activity: Active
[14]
  Activity: Active
RAW264.7 [15]
  pIC50: 5.06
[16]
  pEC50: 5.17
[17]
  Activity: Active
[18]
  Activity: Active
Vero
  pIC50: 4.55
BMDM
  Activity: inactive
[19]
  Activity: Active
[20]
  Activity: Active
[21]
  Activity: Active
Mus musculus [22]
  Activity: Active
HT-1080 [23]
  Activity: inactive
[24]
  pEC50: 5.21
[25]
  Activity: Active
[26]
  Activity: Active
THP-1
  Activity: inactive
RAW264.7 [27]
  Activity: Active
[28]
  Activity: Active
Mus musculus [29]
  Activity: Active
[30]
  Activity: Active
[31]
  Activity: Active
RAW264.7 [32]
  Activity: Active
[33]
  Activity: Active
[34]
  Activity: Active
HT-1080 [35]
  Activity: Active
HEK-293T
  pIC50: 4.65
HT-1080 [36]
  pIC50: 5.03
[37]
  Activity: Active
[38]
  Activity: Active
[39]
  Activity: Active
